Laboratory results reported in the NIST ThermoML archive (doi:10.1021/je800999s).
± gives the expanded uncertainty stated by the source.

Experiment: molar heat capacity at constant pressure
Details: 101 kPa, Liquid, Large sample (1 g) DSC

Row | molar heat capacity at constant pressure (303.15 K) [J/K/mol] | molar heat capacity at constant pressure (308.15 K) [J/K/mol] | molar heat capacity at constant pressure (313.15 K) [J/K/mol] | molar heat capacity at constant pressure (318.15 K) [J/K/mol] | molar heat capacity at constant pressure (323.15 K) [J/K/mol] | molar heat capacity at constant pressure (328.15 K) [J/K/mol] | molar heat capacity at constant pressure (333.15 K) [J/K/mol] | molar heat capacity at constant pressure (338.15 K) [J/K/mol] | molar heat capacity at constant pressure (343.15 K) [J/K/mol] | molar heat capacity at constant pressure (348.15 K) [J/K/mol] | molar heat capacity at constant pressure (353.15 K) [J/K/mol] | Compound
1 | 166 ± 7 | 167 ± 7 | 168 ± 7 | 169 ± 7 | 170 ± 7 | 172 ± 7 | 174 ± 7 | 175 ± 7 | 176 ± 7 | 177 ± 8 | 178 ± 8 | CN1CCCC1=O [N-methylpyrrolidone]
2 | 359 ± 15 | 364 ± 15 | 366 ± 16 | 368 ± 16 | 370 ± 16 | 371 ± 16 | 373 ± 16 | 375 ± 16 | 379 ± 16 | 381 ± 16 | 382 ± 16 | COCCOCCOCCOC [2,5,8,11-tetraoxadodecane]
3 | 182 ± 8 | 184 ± 8 | 185 ± 8 | 186 ± 8 | 188 ± 8 | 189 ± 8 | 191 ± 8 | 193 ± 8 | 194 ± 8 | 197 ± 8 | 199 ± 8 | O=S1(=O)CCCC1 [sulfolane]
4 | 185 ± 8 | 186 ± 8 | 188 ± 8 | 189 ± 8 | 191 ± 8 | 193 ± 8 | 195 ± 8 | 197 ± 8 | 200 ± 9 | 201 ± 9 | 202 ± 9 | O=CN1CCOCC1 [N-formylmorpholine]
